Test results as given in paper PMC10999543, “Identification of kinase modulators as host-directed therapeutics against intracellular methicillin-resistant Staphylococcus aureus” (Frontiers in Cellular and Infection Microbiology, 2024).
Read-outs that look alike come from different tables or passages of the source.

Tests used:
[1] = tested on: intracellular MRSA; type: cell-based, Staphylococcus aureus; details: for %GFP+ rep 1 / z-scoreMRSA+ rep 1: replicate 1; for %GFP+ rep 2 / z-scoreMRSA+ rep 2: replicate 2; for %GFP+ rep 3 / z-scoreMRSA+ rep 3: replicate 3; for z-scoreMRSA+ mean: mean of 3 replicates
Experimental: (§1) The cells were resuspended in cell culture medium without antibiotics, seeded with 10,000 cells/well into Costar flat-bottom 96-well plates (Corning, Amsterdam, the Netherlands), and were incubated overnight at 37°C/5% CO2. The next day, the bacteria were centrifuged at ≥1800 g for 15 min and resuspended in cold PBS + 5 mM ethylenediaminetetraacetic acid (EDTA). The number of CFUs present in the bacterial suspension was estimated from the optical density at 600 nm (OD600) by assuming 8x10^8 CFUs to be present in a bacterial suspension with OD600 = 1, based on prior titrations. The bacterial suspension was diluted in cell culture medium without antibiotics and added to the cells. Accuracy of the multiplicity of infection (MOI) was validated by plating serial dilutions of the MRSA inoculums on Difco TS agar plates (BD Biosciences). The calculated mean MOI throughout all experiments was 6.8 ± 4.6 (mean ± SD). Infected cells were centrifuged for 3 min at 150 g and incubated for 1 hour at 37°C/5% CO2. Next, the cells were incubated with fresh cell culture medium supplemented with 30 µg/ml gentamicin sulphate (Lonza BioWhittaker, Basel, Switzerland) for 15 min at 37°C/5% CO2 to kill residual extracellular bacteria. Infected cells were incubated overnight at 37°C/5% CO2 in cell culture medium in the presence of kinase inhibitors and 5 µg/ml gentamicin sulphate-containing medium to prevent the growth of extracellular bacteria. The solvent of the compounds, DMSO, was used at equal % v/v as a negative control. For the screen, each compound was tested in triplicate, on separate cell culture plates, resulting in triplicate values for each kinase inhibitor.
(§2) HeLa cells were harvested by trypsinization and fixed with 1% paraformaldehyde. Samples were measured on a FACSLyric with HTS extension (BD Biosciences). Flow cytometry data were analysed using FlowJo version 10 (TreeStar, Ashland, OR, USA). HeLa cells positive for GFP were gated to calculate the percentage of MRSA-infected cells. The cell count was used as surrogate readout of cell viability.
To identify potential “hit” compounds, the flow cytometry data were used to calculate standard z-scores using z = (x-μ)/σ – zneg, where x is total event count or the percent of GFP-positive cells from a single well, μ is the mean from wells of the plate, σ is the standard deviation of the plate and zneg is the mean z-score of the negative control of the plate (i.e., DMSO) ([Korbee et al., 2018]). To minimize the possibility that the presence of extreme values on a plate affected the z-scores, raw values that deviated two-fold from the negative controls were excluded when calculating plate means and standard deviations as used in the aforementioned formula. Compounds were considered a “hit” when z-scoreMRSA+ ≤ -2 and z-scoreHeLa ≥ -3 for cell count. In cases where compounds were screened twice, the average values were used to select hit compounds.

[2] = tested on: HeLa cells; test: Compound screen by flow cytometry: HeLa cell count as surrogate readout of cell viability (z-scoreHeLa); type: cell-based, human; details: for cell count rep 1 / z-scoreHeLa rep 1: replicate 1; for cell count rep 2 / z-scoreHeLa rep 2: replicate 2; for cell count rep 3 / z-scoreHeLa rep 3: replicate 3; for z-scoreHeLa mean: mean of 3 replicates
Experimental: as §1, §2
To minimize the possibility that the presence of extreme values on a plate affected the z-scores, raw values that deviated two-fold from the negative controls were excluded when calculating plate means and standard deviations as used in the aforementioned formula. Compounds were considered a “hit” when z-scoreMRSA+ ≤ -2 and z-scoreHeLa ≥ -3 for cell count. In cases where compounds were screened twice, the average values were used to select hit compounds.

[3] = PKIS compound screen raw data, MRSA-infected HeLa cells
[4] = PKIS compound screen, MRSA-infected HeLa cells
[5] = PKIS compound screen, Yes/No call
[6] = PKIS compound screen, Yes/No call (effect without cell death)
[7] = PKIS compounds raw data, MRSA-infected HeLa cells
[8] = PKIS compound screen raw data, HeLa cell count
[9] = PKIS compound screen, HeLa cell count
[10] = PKIS compounds raw data, HeLa cell count
[11] = compound screen, MRSA-infected HeLa cells
[12] = compound screen, HeLa cell count

Row | SMILES | %GFP+ rep 1 [1, 3] [%] | %GFP+ rep 2 [1, 3] [%] | %GFP+ rep 3 [1, 3] [%] | effect [1, 5] | hit [1, 6] | z-scoreMRSA+ mean ([1]; PKIS compound screen) | z-scoreMRSA+ rep 1 ([1]; PKIS compound screen) | z-scoreMRSA+ rep 2 ([1]; PKIS compound screen) | z-scoreMRSA+ rep 3 ([1]; PKIS compound screen) | %GFP+ rep 1 [1, 7] [%] | %GFP+ rep 2 [1, 7] [%] | %GFP+ rep 3 [1, 7] [%] | cell death [2, 5] | z-scoreHeLa mean ([2]; PKIS compound screen) | z-scoreHeLa rep 1 ([2]; PKIS compound screen) | z-scoreHeLa rep 2 ([2]; PKIS compound screen) | z-scoreHeLa rep 3 ([2]; PKIS compound screen) | cell count rep 1 [2, 10] | cell count rep 2 [2, 10] | cell count rep 3 [2, 10] | further results
1 | c1ccc(-c2cc3ccncc3cc2OC2CCNCC2)cc1 [GSK1122999D] | 16.9 | 18.4 | 20.9 | No | No | 0.55 | 0.42 | 0.40 | 0.84 | 29.2 | 28.1 | 31.8 | No | 0.77 | 1.62 | 0.23 | 0.45 | 8742 | 6353 | 6306 | z-scoreMRSA+ mean [1, 4]: -0.29; z-scoreMRSA+ rep 1 [1, 4]: -0.50; z-scoreMRSA+ rep 2 [1, 4]: -0.28; z-scoreMRSA+ rep 3 [1, 4]: -0.09; effect ([1]; PKIS compound screen, Yes/No call on z-scoreMRSA+): No; cell count rep 1 [2, 8]: 28278; cell count rep 2 [2, 8]: 18056; cell count rep 3 [2, 8]: 22119; z-scoreHeLa mean [2, 9]: -0.31; z-scoreHeLa rep 1 [2, 9]: -0.33; z-scoreHeLa rep 2 [2, 9]: -1.24; z-scoreHeLa rep 3 [2, 9]: 0.62; cell death ([2]; PKIS compound screen, Yes/No call on z-scoreHeLa): No
2 | O=C(Nc1ccccc1F)NC1CCN(c2ccnc(Nc3ccc(F)cc3)n2)CC1 [GSK1379800A] | – | – | – | No | No | 0.29 | -0.13 | 0.53 | 0.47 | 26.4 | 28.8 | 29.8 | No | 0.79 | 0.80 | 0.32 | 1.24 | 7378 | 6492 | 7551 | –
3 | COc1ccc2ncnc(Nc3ccc(OCc4ccccc4)cc3)c2c1 [GI261520A] | – | – | – | No | No | -0.60 | -0.44 | -0.0319 | -1.33 | 11.8 | 13.4 | 11.4 | No | 1.78 | 1.21 | 1.33 | 2.78 | 6115 | 6030 | 12782 | –
4 | COc1ccc(Nc2nccc(NCCNC(=O)Nc3ccccc3F)n2)cc1 [GSK1379901A] | 25.4 | 21.0 | 21.4 | – | – | – | – | – | – | – | – | – | – | – | – | – | – | – | – | – | effect ([1]; Yes/No call from z-scoreMRSA+): No; hit ([1]; Yes/No: effect without cell death): No; z-scoreMRSA+ mean [1, 11]: -0.20; z-scoreMRSA+ rep 1 [1, 11]: 0.03; z-scoreMRSA+ rep 2 [1, 11]: -0.39; z-scoreMRSA+ rep 3 [1, 11]: -0.24; cell count rep 1 [2, 8]: 4960; cell count rep 2 [2, 8]: 3999; cell count rep 3 [2, 8]: 4730; cell death ([2]; Yes/No call from z-scoreHeLa): No; z-scoreHeLa mean [2, 12]: -0.04; z-scoreHeLa rep 1 [2, 12]: 0.44; z-scoreHeLa rep 2 [2, 12]: -0.23; z-scoreHeLa rep 3 [2, 12]: -0.32
